According to paper PMC11831560, “Development of the Pyrido[2,3-d]pyrimidin-7(8H)-one Scaffold toward Potent and Selective NUAK1 Inhibitors” (ACS Medicinal Chemistry Letters, 2025):
Several values for one entry are separate records, joined by “and”; a condition that tells them apart may be missing. Equal values may be shown once.

Tests used:
[1] = molecular target: T1, NUAK1 (Homo sapiens, UniProt O60285); assay: NanoBRET target engagement assay, HEK293 cells; conditions: cell-based NanoBRET target engagement assay
T1 sequence (O60285 1-661): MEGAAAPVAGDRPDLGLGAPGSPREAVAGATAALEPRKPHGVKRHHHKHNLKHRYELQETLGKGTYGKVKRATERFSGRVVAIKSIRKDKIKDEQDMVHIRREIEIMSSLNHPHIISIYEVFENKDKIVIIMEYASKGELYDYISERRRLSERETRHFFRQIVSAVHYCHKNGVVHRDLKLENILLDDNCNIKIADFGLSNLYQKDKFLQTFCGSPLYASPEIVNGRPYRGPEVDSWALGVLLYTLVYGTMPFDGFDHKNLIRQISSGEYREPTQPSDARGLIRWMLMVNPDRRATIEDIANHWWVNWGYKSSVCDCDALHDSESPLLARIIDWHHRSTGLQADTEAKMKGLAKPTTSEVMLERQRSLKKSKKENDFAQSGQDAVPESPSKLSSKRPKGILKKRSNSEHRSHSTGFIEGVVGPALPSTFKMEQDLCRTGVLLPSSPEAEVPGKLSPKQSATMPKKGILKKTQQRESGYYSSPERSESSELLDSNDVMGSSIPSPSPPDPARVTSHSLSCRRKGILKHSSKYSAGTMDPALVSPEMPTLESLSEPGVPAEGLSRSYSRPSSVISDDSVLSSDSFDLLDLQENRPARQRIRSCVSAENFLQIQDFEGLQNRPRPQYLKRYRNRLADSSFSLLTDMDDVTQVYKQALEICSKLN
Description: NanoBRET® target engagement assay
The binding of compounds to NUAK1 in intact cells was assessed using an NanoBRET® TE Intracellular Kinase Assay (Promega N2501). HEK293 cells transiently transfected with NanoLuc®- NUAK1 Fusion Vector (Promega NV1831) were incubated with 10 nL K5 tracer (provided in the kit, Promega N2501) and 40 nL of the test compounds in 100% DMSO in a white low volume non-binding 384 assay plate (Grenier Bio One 784904) for 90 min at 37 °C. After incubation, followed by cooling for 15 min at room temperature, 4 µL of the Intracellular TE Nano-Glo ® Substrate/Inhibitor (Promega N2160) was added to each well. The plate was read using a Pherastar FSX plate reader (BMG Labtech).
Minimum number of 2 technical replicates per compound.
Activity pIC50 values and standard error of the mean (SEM) were estimated using a 4-parameter fit (Dotmatics). The SEM for all reported data was 0.2 or lower. See Experimental Procedures for minimum number of replicates per compound. Each experiment included a Standard compound whose pIC50 value was compared to a quality control chart. If the Standard pIC50 value fell outside the range of pIC50 +/-3 standard deviation, then the experiment was invalidated. […]

[2] = molecular target: T2, MARK3 (Homo sapiens, UniProt P27448); assay: ADP-Glo biochemical assay MARK3; conditions: for IC50 / MARK3 pIC50: ADP-Glo assay; for IC50: read-out: MARK3 pIC50 (converted)
T2 construct: purchased MRC PPU
T2 sequence (P27448 whole entry): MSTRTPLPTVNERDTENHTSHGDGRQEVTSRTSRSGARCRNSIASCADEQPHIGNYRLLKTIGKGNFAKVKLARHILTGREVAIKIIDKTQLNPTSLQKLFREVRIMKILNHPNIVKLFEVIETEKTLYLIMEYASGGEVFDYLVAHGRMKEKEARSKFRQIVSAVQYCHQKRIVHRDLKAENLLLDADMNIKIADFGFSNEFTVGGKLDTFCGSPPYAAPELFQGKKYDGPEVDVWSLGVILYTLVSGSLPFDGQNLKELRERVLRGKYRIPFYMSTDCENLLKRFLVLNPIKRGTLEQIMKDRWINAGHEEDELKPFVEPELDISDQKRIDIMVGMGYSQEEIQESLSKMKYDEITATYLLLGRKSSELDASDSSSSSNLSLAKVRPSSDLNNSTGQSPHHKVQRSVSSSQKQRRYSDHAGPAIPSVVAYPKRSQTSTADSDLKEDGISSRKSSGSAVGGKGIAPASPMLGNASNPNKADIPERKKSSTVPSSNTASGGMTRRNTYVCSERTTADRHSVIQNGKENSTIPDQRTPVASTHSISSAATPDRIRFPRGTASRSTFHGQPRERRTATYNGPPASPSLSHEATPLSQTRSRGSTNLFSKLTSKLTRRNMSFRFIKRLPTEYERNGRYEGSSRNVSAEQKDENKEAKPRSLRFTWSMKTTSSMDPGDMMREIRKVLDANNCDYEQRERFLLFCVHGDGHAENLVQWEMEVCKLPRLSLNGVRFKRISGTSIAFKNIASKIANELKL
Description: (§1) Biological experimental procedures
(§2) ADP-Glo biochemical assays
(§3) Protein kinase activity in the presence of inhibitor compounds was determined by ADP-Glo assay (Promega), as previously described.1,2 Compounds were serialised using a Labcyte Echo 520 and transferred to 384 well plates (Greiner 784201) followed by the addition 5 µL of substrate containing peptide and ATP at Km in buffer (see Table S6). 5 µL of purified protein was added and the plate was incubated for 60 minutes at room temperature (ng/well; see Table S6). 3 µL of assay mixture was transferred using an Integra Viaflo384 into a white low volume plate (Greiner 781904) prior to the addition of 3 µL of ADP-Glo Reagent™ for a further 40 minute incubation. After incubation with 6 µL of Kinase Detection Reagent for 30 minutes, plate luminescence was read (Pherastar FSX, BMG […]
(§4) 30 mM HEPES pH7.4, 3 mM MgCl2, 3 mM MnCl2, 1.2 mM DTT, 0.01% CHAPS
(§5) Table S6: Conditions for protein kinase ADP-Glo assays
(§6) ATP AT Peptide Peptide Enzyme Enzyme Assay Buffe Min.
(§7) Protein conc. P Peptide name conc. supplier amount supplier vol. r na […]
(§8) NUAK1 µM µM Sakamototide 50 µM Merck 6.7 ng PPU 10 µl A 6
(§9) A µM µM Sakamototide 100 µM Merck 1 ng PPU 10 µl B 2 […]
(§10) aMin. n: Minimum number of technical replicates per compound

[3] = molecular target: T1, NUAK1; assay: ADP-Glo biochemical assay NUAK1; design: purchased MRC PPU; conditions: ADP-Glo assay; for IC50: read-out: NUAK1 pIC50 (converted)
Description: as §1, §2, §3, §4, §5, §6, §7, §8, §9, §10

[4] = Microsomal stability, mouse; assay type: in vitro ADME; conditions: mouse liver microsomes; read-out: MLM t1/2
Description: (§11) All single point assay determinations carried out in duplicate.
(§12) ADMET and PK experimental methods
(§13) Microsomal stability: analysis was performed by Cyprotex Discovery. […]

[5] = molecular target: T3, AMPKA α1β2γ1 (Homo sapiens, UniProt O43741+P54619+Q13131); assay: ADP-Glo biochemical assay AMPKA; conditions: ADP-Glo assay; read-out: AMPKA pIC50 (converted)
T3 construct: purchased MRC PPU
T3 sequence (Q13131 11-559 limits assumed): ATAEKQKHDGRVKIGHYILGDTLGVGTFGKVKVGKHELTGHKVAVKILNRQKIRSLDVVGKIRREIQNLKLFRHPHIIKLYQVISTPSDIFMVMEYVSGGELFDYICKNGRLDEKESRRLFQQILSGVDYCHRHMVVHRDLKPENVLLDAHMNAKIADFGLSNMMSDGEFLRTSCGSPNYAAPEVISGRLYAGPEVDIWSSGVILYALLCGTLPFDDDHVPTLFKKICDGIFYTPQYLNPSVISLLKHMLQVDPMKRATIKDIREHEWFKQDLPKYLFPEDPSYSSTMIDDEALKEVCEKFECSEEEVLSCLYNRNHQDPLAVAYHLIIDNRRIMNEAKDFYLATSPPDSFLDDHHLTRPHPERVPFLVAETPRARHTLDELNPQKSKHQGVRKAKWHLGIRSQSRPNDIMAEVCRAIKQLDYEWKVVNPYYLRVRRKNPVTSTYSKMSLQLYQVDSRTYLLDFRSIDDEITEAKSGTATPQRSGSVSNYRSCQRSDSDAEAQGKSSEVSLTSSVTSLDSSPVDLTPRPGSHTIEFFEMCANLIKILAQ
T3 sequence (O43741 whole entry partner): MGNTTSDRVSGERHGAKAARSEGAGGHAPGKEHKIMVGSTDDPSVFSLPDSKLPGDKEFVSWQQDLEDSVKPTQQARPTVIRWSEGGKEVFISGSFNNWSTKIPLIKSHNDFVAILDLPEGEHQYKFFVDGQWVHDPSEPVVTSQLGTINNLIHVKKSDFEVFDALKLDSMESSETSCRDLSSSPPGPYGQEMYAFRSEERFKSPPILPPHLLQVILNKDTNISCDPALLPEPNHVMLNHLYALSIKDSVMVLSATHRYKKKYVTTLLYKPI
T3 sequence (P54619 whole entry partner): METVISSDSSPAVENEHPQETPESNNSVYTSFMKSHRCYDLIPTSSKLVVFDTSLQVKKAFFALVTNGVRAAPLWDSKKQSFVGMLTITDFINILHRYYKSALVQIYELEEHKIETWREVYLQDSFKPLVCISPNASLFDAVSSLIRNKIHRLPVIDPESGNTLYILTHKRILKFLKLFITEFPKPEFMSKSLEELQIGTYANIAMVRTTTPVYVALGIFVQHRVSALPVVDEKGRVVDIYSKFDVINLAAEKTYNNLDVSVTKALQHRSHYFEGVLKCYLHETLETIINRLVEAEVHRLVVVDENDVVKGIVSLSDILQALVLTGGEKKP
Description: as §1, §2, §3, §4, §5, §6, §7, §8, §9, §10

[6] = molecular target: T4, AMPKA α1β2γ1 (Homo sapiens, UniProt Q13131); assay: ADP-Glo biochemical assay AMPKA; conditions: AMPKA IC50/NUAK1 IC50
T4 construct: purchased MRC PPU
T4 sequence (Q13131 11-559 limits assumed): as the sequence (Q13131 11-559 limits assumed) above
T4 sequence (O43741 whole entry partner): as the sequence (O43741 whole entry partner) above
T4 sequence (P54619 whole entry partner): as the sequence (P54619 whole entry partner) above
Description: as §1, §2, §3, §4, §5, §6, §7, §8, §9, §10

[7] = molecular target: T5, MARK1 (Homo sapiens, UniProt Q9P0L2); assay: ADP-Glo biochemical assay MARK1; conditions: for IC50: ADP-Glo assay, read-out: MARK1 pIC50 (converted)
T5 construct: purchased MRC PPU
T5 sequence (Q9P0L2 whole entry): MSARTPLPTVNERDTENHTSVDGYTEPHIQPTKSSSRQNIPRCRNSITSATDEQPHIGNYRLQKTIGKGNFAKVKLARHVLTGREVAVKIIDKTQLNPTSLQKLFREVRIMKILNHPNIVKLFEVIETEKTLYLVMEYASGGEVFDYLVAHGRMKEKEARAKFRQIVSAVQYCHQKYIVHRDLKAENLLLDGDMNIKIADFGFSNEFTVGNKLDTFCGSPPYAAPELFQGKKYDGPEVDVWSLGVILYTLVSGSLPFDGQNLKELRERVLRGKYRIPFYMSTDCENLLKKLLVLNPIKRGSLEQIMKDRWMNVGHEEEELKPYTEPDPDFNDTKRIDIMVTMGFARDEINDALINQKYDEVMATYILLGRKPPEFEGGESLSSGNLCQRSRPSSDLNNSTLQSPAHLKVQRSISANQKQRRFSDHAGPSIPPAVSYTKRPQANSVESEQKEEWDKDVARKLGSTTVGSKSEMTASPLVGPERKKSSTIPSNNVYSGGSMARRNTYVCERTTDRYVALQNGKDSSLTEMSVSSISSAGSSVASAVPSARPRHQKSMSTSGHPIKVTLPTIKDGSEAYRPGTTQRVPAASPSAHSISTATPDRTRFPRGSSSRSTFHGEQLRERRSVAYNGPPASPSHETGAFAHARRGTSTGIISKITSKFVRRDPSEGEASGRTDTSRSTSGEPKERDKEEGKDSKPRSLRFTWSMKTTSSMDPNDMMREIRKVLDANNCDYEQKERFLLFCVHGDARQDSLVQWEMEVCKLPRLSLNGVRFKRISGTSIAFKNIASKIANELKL
Description: as §1, §2, §3, §4, §5, §6, §7, §8, §9, §10

[8] = molecular target: T6, MARK2 (Homo sapiens, UniProt Q7KZI7); assay: ADP-Glo biochemical assay MARK2; conditions: for IC50: ADP-Glo assay, read-out: MARK2 pIC50 (converted)
T6 construct: purchased MRC PPU
T6 sequence (Q7KZI7 whole entry): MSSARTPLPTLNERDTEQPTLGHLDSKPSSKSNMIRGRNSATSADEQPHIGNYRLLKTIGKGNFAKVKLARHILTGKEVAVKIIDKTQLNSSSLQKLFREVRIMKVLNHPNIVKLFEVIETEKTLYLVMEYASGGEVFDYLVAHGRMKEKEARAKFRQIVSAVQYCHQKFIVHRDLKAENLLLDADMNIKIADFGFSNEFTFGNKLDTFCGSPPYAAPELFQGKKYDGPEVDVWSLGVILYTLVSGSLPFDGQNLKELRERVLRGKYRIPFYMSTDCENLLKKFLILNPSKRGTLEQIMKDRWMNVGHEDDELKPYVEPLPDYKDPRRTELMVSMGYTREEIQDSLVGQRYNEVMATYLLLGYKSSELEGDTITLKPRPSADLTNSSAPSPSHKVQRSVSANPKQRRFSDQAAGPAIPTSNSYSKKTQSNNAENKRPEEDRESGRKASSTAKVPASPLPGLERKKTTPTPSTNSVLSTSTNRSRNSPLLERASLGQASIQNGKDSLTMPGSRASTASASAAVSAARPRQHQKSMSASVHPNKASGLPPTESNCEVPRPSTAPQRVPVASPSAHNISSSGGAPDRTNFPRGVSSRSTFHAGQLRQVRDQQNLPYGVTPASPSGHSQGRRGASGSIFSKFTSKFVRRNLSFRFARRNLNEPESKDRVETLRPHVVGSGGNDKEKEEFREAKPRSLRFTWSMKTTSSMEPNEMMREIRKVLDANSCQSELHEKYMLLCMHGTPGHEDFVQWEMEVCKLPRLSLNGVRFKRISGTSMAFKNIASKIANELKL
Description: as §1, §2, §3, §4, §5, §6, §7, §8, §9, §10

[9] = molecular target: T7, MARK4 (Homo sapiens, UniProt Q96L34); assay: ADP-Glo biochemical assay MARK4; conditions: for IC50: ADP-Glo assay, read-out: MARK4 pIC50 (converted)
T7 construct: purchased MRC PPU
T7 sequence (Q96L34 1-752): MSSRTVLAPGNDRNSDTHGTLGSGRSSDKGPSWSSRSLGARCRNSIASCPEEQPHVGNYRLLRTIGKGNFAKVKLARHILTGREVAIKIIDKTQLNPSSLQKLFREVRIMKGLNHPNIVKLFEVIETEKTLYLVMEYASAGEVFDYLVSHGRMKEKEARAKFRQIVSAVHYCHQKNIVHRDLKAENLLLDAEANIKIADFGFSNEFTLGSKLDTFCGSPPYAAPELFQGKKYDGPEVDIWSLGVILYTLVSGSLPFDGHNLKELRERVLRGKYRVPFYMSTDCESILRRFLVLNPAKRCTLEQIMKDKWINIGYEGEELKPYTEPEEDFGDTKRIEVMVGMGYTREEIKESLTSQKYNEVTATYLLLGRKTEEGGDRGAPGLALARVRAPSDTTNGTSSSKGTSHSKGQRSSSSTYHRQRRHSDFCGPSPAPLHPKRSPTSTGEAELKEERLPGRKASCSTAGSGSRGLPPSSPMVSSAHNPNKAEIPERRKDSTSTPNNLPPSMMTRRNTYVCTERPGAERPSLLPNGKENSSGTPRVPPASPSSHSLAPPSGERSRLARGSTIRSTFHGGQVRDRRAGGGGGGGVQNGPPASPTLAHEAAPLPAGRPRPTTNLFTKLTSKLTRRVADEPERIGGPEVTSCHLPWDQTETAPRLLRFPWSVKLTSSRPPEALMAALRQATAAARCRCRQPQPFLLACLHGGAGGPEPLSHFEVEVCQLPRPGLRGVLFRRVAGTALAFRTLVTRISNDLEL
Description: as §1, §2, §3, §4, §5, §6, §7, §8, §9, §10

[10] = Microsomal stability, human; assay type: in vitro ADME; conditions: human liver microsomes; read-out: HLM t1/2
Description: as §11, §12, §13

Row | SMILES | NUAK1 cell TE pIC50 [1] | MARK3 Fold selectivity IC50/NUAK1 IC50 [2] | MARK3 pIC50 [2] | NUAK1 pIC50 [3] | also measured
1 | Cc1nc(Nc2cnn(C3CCNCC3)c2)nc2c1N(C)C(=O)c1cc3ccccc3cc1N2C [Compound 2, HTH-01-015, reference compound] | < 4.3 |  |  |  | 
2 | CN1C2CC1CN(c1ccc(Nc3ncc4ccn(CC5CCOC5)c4n3)cc1)C2 (stereo not drawn) [Compound 29] | 6.4 | 641 fold | 5.3 | 8.1 | half-life at 1 µM [4]: 12.8 min; IC50 [5]: 5.62 µM; AMPKA Fold selectivity IC50/NUAK1 IC50 [6]: 708 fold
3 | Cc1cc(=O)n(C2CCCC2)c2nc(Nc3ccc(N4CCN(C(C)C)CC4)cc3)ncc12 [Compound 5] | 6.6 | 71 fold | 6.5 | 8.4 | half-life at 0.75 h, 1 µM [4]: 2.2 min; IC50 [5]: 1.07 µM; AMPKA Fold selectivity IC50/NUAK1 IC50 [6]: 240 fold; IC50 [3]: 0.00447 µM; IC50 [7]: 3.8 µM; MARK1 Fold selectivity IC50/NUAK1 IC50 [7]: 851 fold; IC50 [8]: 5.62 µM; MARK2 Fold selectivity IC50/NUAK1 IC50 [8]: 1259 fold; IC50 [9]: 9.12 µM; MARK4 Fold selectivity IC50/NUAK1 IC50 [9]: 2042 fold
4 | CN1C2CC1CN(c1ccc(Nc3ncc4ccn(C5COC5)c4n3)cc1)C2 [Compound 31] |  | 263 fold | 5.4 | 7.8 | 
5 | COCCn1c(=O)cc(C)c2cnc(Nc3ccc(N4CC5CC(C4)N5C)cc3)nc21 [Compound 21] |  | 35 fold | 5.2 | 6.7 | 
6 | CC(=O)c1c(C)c2cnc(Nc3ccc(N4CCNCC4)cn3)nc2n(C2CCCC2)c1=O [Compound 14, Palbociclib, reference compound] |  |  |  |  | IC50 [3]: 20 µM
7 | Cc1cc(=O)n(CC(O)CO)c2nc(Nc3ccc(N4CC5CC(C4)N5C)cc3)ncc12 (stereo not drawn) [Compound 22] |  | 20 fold | 5.7 | 7.0 | 
8 | CN1C2CC1CN(c1ccc(Nc3ncc4ccn(C5CCOC5)c4n3)cc1)C2 (stereo not drawn) [Compound 30] |  | 388 fold |  |  | IC50 [2]: 6.31 µM; IC50 [3]: 0.0158 µM
9 | CN1CCN(c2ccc(Nc3ncc4c(n3)N(C3CCCC3)C(=O)C(C)(C)O4)cc2)CC1 [Compound 6] | <4.6 | 8 fold | 5.9 | 6.8 | 

More lines, main results first:

Row | NUAK1 cell TE pIC50 [1] | MARK3 Fold selectivity IC50/NUAK1 IC50 [2] | MARK3 pIC50 [2] | NUAK1 pIC50 [3] | SMILES | also measured
10 |  | > 11 fold |  |  | Cc1cc(=O)n(C2CCCC2)c2nc(Nc3ccc(N4CCNCC4)cn3)ncc12 [Compound 13] | IC50 [2]: > 3.16 µM; IC50 [3]: 0.316 µM
11 |  | > 89 fold | < 4.6 | 6.6 | COc1cc(N2CCN(C)CC2)ccc1Nc1ncc2c(C)cc(=O)n(C3CCCC3)c2n1 [Compound 12] | 
12 | 7.0 | 1000 fold and 1005 fold | 5.59 and 5.6 | 8.59 and 8.6 | CC(C)N1CCN(c2ccc(Nc3ncc4ccn(CC5CCOCC5)c4n3)cc2)CC1 [Compound 25] | half-life at 1 µM [4]: 13.9 min; IC50 [5]: 2.69 µM; AMPKA Fold selectivity IC50/NUAK1 IC50 [6]: 1047 fold; IC50 [7]: 3.55 µM; MARK1 Fold selectivity IC50/NUAK1 IC50 [7]: 1380 fold; IC50 [8]: 7.08 µM; MARK2 Fold selectivity IC50/NUAK1 IC50 [8]: 2754 fold; IC50 [9]: 11.5 µM; MARK4 Fold selectivity IC50/NUAK1 IC50 [9]: 4467 fold
13 | inactive | 57 fold | 5.6 | 7.4 | COc1cc(Nc2ncc3c(n2)N(C2CCCC2)C(=O)C(C)(C)O3)cc(OC)c1OC [Compound 19] | half-life at 1 µM [4]: 1.4 min; IC50 ([1]; read-out: NUAK1 cell TE pIC50 (converted)): > 25.1 µM
14 | inactive | > 1098 fold | < 4.6 | 7.7 | COc1cc(Nc2ncc3cc(C#N)c(=O)n(C4CCCC4)c3n2)cc(OC)c1OC [Compound 16, ON123790, reference compound] | half-life at 0.75 h, 1 µM [4]: 1.9 min; half-life at 1 µM [10]: 13.6 min; NUAK1 cell TE pIC50 ([1]; listed as ON123790 (16)): <4.6
15 | 6.6 | 288 fold | 5.8 | 8.21 and 8.2 | COc1cc(Nc2ncc3c(C)cc(=O)n(C4CCCC4)c3n2)cc(OC)c1OC [Compound 15] | IC50 [5]: > 75.9 µM; AMPKA Fold selectivity IC50/NUAK1 IC50 [6]: > 12000 fold
16 | <4.6 | > 676 fold | < 4.6 | 7.4 | COc1cc(Nc2ncc3cc(C#N)c(=O)n(C4CCCC4)c3n2)cc(OC)c1 [Compound 17] | 
17 |  | 40 fold | 4.9 | 6.5 | COc1nn(C)cc1Nc1ncc2c(C)cc(=O)n(C3CCCC3)c2n1 [Compound 18] | 
